From US8268818B2, “Inhibitors of C-MET and uses thereof” (Vertex Pharmaceuticals Incorporated, priority 2006, dated 2012)
Like-named read-outs stand apart in the source and are kept apart here.

Target: PI3Kγ (Homo sapiens, UniProt P48736)
Assay: PI3K inhibition assay, Protocol B (33P-ATP, glass fiber filter plate)
Format: biochemical
Description: Compounds were screened for their ability to inhibit PI3Kγ using one of the assays below.
To each well of a 96 well polystyrene plate [Corning Costar Item No. 3795], 61 μL of Reaction Mix [55 mM HEPES pH 7.5, 11 mM MgCl2, 27 mM NaCl, 5.5 mM DTT, 0.11 mg/mL BSA, 51 μM phosphatidylinositol(4,5)bisphosphate diC16 (PI(4,5)P2; Avanti Polar Lipids, Cat. No. 840046P) and 18 nM PI3Kγ] was added. Separately, ten 2.5-fold serial dilutions of compounds of the invention were prepared in 100% DMSO with the last two wells reserved for no inhibitor controls (enzyme+no compound and no enzyme control+no compound). 1 μL it of compound or DMSO alone was added by 12-channel hand pipet and incubated for 10 minutes at room temperature (25° C.). To initiate the reaction, 5 μl of ATP Mix [49 mM HEPES pH 7.5 and 1340 ^33P-ATP was added and allowed to incubate for 30 min. at 25° C. Final concentrations of the reaction were 50 mM HEPES 7.5, 10 mM MgCl2, 25 mM NaCl, 5 mM DTT, 0.1 mg/mL BSA, 46 μM PI(4,5)P2, 16.6 nM PI3Kγ, and 100 μM ATP. Final inhibitor concentrations ranged from 10 μM to 1 nM.
After incubation, 60 μL of the reaction was quenched by transferring to 504 of 20% TCA/Water in each well of a 96 well glass fiber filter plate [Millipore Cat. No. MAFBN0B50]. The plate was dried by vacuum and then washed five times in a Bio-Tek Instruments ELX-405 Auto Plate Washer with 150 μL of 5% TCA/Water. 50 μL of scintillation fluid was added to each well and the plate was read immediately on a Perkin-Elmer TopCount™ NXT liquid scintillation counter.
Inhibition data was background subtracted (no enzyme control+no inhibitor control) and fit to the competitive tight binding Ki equation described by Morrison and Stone. [J. F. Morrison and S. R. Stone, Comments Mol. Cell. Biophys. 2 (1985) 347-368].

[1] = Protocol B, 100 μM ATP, 46 μM PI(4,5)P2 diC16, 16.6 nM PI3Kγ, average if more than one result, read-out: PI3Kγ enzyme inhibition Ki

PI3Kγ, sequence (P48736 whole entry, species assumed): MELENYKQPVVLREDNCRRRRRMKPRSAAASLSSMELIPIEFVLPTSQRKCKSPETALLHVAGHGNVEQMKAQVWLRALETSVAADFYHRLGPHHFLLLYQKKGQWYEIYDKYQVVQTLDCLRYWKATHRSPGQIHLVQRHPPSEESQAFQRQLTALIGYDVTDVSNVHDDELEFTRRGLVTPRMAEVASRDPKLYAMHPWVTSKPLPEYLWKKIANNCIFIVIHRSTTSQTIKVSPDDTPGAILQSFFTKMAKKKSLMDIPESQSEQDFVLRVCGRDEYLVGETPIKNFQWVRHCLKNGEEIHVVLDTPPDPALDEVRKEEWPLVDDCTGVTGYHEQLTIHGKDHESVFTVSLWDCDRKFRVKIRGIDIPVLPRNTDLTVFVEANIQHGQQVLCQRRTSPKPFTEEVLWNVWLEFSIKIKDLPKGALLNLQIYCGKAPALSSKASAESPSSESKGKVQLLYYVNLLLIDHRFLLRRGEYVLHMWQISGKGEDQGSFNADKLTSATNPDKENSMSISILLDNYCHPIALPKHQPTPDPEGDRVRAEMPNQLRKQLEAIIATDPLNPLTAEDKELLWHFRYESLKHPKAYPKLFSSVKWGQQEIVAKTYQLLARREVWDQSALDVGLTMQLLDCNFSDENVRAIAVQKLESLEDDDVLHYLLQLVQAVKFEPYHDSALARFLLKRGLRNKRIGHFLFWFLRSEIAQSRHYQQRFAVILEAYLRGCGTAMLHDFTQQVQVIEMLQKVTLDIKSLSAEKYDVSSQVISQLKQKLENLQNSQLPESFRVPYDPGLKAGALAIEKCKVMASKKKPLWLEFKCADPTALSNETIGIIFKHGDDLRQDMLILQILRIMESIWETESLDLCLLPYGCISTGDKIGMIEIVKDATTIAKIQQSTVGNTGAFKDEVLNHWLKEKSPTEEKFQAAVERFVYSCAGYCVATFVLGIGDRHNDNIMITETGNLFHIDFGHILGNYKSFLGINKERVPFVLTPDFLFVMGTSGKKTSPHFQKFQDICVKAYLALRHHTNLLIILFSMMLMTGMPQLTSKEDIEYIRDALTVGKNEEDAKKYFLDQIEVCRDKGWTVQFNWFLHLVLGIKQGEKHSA

Row | SMILES | Ki [1] | Ki
1 | CC(=O)Nc1nc(C)c(-c2ccc(C(=O)N(C)Cc3ccco3)o2)s1 [Compound 2] | 100 to 1000 nM | 
2 | CC(=O)Nc1nc(C)c(-c2ccc(C(=O)NCc3cc(Cl)cc(Cl)c3)o2)s1 [Compound 3] | 1000 to 5000 nM | 
3 | CC(=O)Nc1nc(C)c(-c2ccc(C(=O)N3CCCC3c3cccc(Br)c3)o2)s1 (centres unmarked) [Compound 4] | 1000 to 5000 nM | 
4 | CC(=O)Nc1nc(C)c(-c2ccc(C(=O)N3CCSCC3)o2)s1 [Compound 5] | 100 to 1000 nM | 
5 | CC(=O)Nc1nc(C)c(-c2ccc(C(=O)N3CCCC(C)C3)o2)s1 (centres unmarked) [Compound 6] | 100 to 1000 nM | 
6 | CC(=O)Nc1nc(C)c(-c2ccc(C(=O)N3CCN(C)CC3)o2)s1 [Compound 7] | 1000 to 5000 nM | 
7 | CC(=O)Nc1nc(C)c(-c2ccc(C(=O)N3CCN(Cc4ccccc4)CC3)o2)s1 [Compound 8] | 100 to 1000 nM | 
8 | CC(=O)Nc1nc(C)c(-c2ccc(C(=O)NCCC#N)o2)s1 [Compound 9] | 100 to 1000 nM | 
9 | CC(=O)Nc1nc(C)c(-c2ccc(C(=O)N[C@@H](CO)c3ccccc3)o2)s1 [Compound 10, (R)-5-(2-acetamido-4-methylthiazol-5-yl)-N-(2-hydroxy-1-phenylethyl)furan-2-carboxamide] | 100 to 1000 nM | 
10 | CC(=O)Nc1nc(C)c(-c2ccc(C(=O)N3CCCCC3)o2)s1 [Compound 11] | 100 to 1000 nM | 
11 | CC(=O)Nc1nc(C)c(-c2ccc(C(=O)NC3(CO)CCCC3)o2)s1 [Compound 12] | 100 to 1000 nM | 
12 | CC(=O)Nc1nc(C)c(-c2ccc(C(=O)N3CCCC(c4ccc(F)cc4)C3)o2)s1 (centres unmarked) [Compound 13] | 100 to 1000 nM | 
13 | CC(=O)Nc1nc(C)c(-c2ccc(C(=O)N3CCC(O)C3)o2)s1 (centres unmarked) [Compound 14] | 100 to 1000 nM | 
14 | CC(=O)Nc1nc(C)c(-c2ccc(C(=O)N3CCC(N4CCCC4)CC3)o2)s1 [Compound 15] | 1000 to 5000 nM | 
15 | CC(=O)Nc1nc(C)c(-c2ccc(C(=O)N3CCC(C#N)(c4ccccc4)CC3)o2)s1 [Compound 16] |  | 100 to 1000 nM
16 | CC(=O)Nc1nc(C)c(-c2ccc(C(=O)N3CCCC(O)C3)o2)s1 (centres unmarked) [Compound 17] | 100 to 1000 nM | 
17 | CC(=O)Nc1nc(C)c(-c2ccc(C(=O)NCc3c(Cl)cccc3Cl)o2)s1 [Compound 18] | 100 to 1000 nM | 
18 | CC(=O)Nc1nc(C)c(-c2ccc(S(N)(=O)=O)o2)s1 [Compound 19] | < 100 nM | 
19 | CNS(=O)(=O)c1ccc(-c2sc(NC(C)=O)nc2C)o1 [Compound 20] | < 100 nM | 
20 | CC(=O)Nc1nc(C)c(-c2ccc(S(=O)(=O)N(C)C)o2)s1 [Compound 21] | < 100 nM | 
21 | CC(=O)Nc1nc(C)c(-c2ccc(S(=O)(=O)NCCO)o2)s1 [Compound 22] | < 100 nM | 
22 | COCCNS(=O)(=O)c1ccc(-c2sc(NC(C)=O)nc2C)o1 [Compound 23] | < 100 nM | 
23 | CC(=O)Nc1nc(C)c(-c2ccc(S(=O)(=O)N(C)CCO)o2)s1 [Compound 24] | < 100 nM | 
24 | CC(=O)Nc1nc(C)c(-c2ccc(S(=O)(=O)NCC(C)C)o2)s1 [Compound 25] | < 100 nM | 

Row | SMILES | Ki [1] | Ki
25 | CC(=O)Nc1nc(C)c(-c2ccc(S(=O)(=O)NCCC#N)o2)s1 [Compound 26] | < 100 nM | 
26 | CC(=O)NCCNS(=O)(=O)c1ccc(-c2sc(NC(C)=O)nc2C)o1 [Compound 27] | < 100 nM | 
27 | CC(=O)Nc1nc(C)c(-c2ccc(S(=O)(=O)NC3CC3)o2)s1 [Compound 28] | < 100 nM | 
28 | CC(=O)Nc1nc(C)c(-c2ccc(S(=O)(=O)NC3CCCC3)o2)s1 [Compound 29] | < 100 nM | 
29 | CC(=O)Nc1nc(C)c(-c2ccc(S(=O)(=O)N3CCCCC3)o2)s1 [Compound 30] | < 100 nM | 
30 | CC(=O)Nc1nc(C)c(-c2ccc(S(=O)(=O)N3CCN(C)CC3)o2)s1 [Compound 31] | < 100 nM | 
31 | CC(=O)Nc1nc(C)c(-c2ccc(S(=O)(=O)N3CC(C)OC(C)C3)o2)s1 (centres unmarked) [Compound 32] | < 100 nM | 
32 | CC(=O)Nc1nc(C)c(-c2ccc(S(=O)(=O)Nc3ccccc3)o2)s1 [Compound 33] | < 100 nM | 
33 | CC(=O)Nc1nc(C)c(-c2ccc(S(=O)(=O)NCc3ccccc3)o2)s1 [Compound 34] | < 100 nM | 
34 | CC(=O)Nc1nc(C)c(-c2ccc(S(=O)(=O)N3CCN(Cc4ccccc4)CC3)o2)s1 [Compound 35] | < 100 nM | 
35 | CC(=O)Nc1nc(C)c(-c2ccc(S(=O)(=O)NCc3cccc(F)c3)o2)s1 [Compound 36] | < 100 nM | 
36 | CC(=O)Nc1nc(C)c(-c2ccc(S(=O)(=O)NCc3cccc(Cl)c3)o2)s1 [Compound 37] | < 100 nM | 
37 | CC(=O)Nc1nc(C)c(-c2ccc(S(=O)(=O)NCc3cccc(Br)c3)o2)s1 [Compound 38] | < 100 nM | 
38 | CC(=O)Nc1nc(C)c(-c2ccc(S(=O)(=O)NCc3cccc(I)c3)o2)s1 [Compound 39] | < 100 nM | 
39 | CC(=O)Nc1nc(C)c(-c2ccc(S(=O)(=O)NCc3cccc([N+](=O)[O-])c3)o2)s1 [Compound 40] | < 100 nM | 
40 | CC(=O)Nc1nc(C)c(-c2ccc(S(=O)(=O)NCc3cccc(O)c3)o2)s1 [Compound 41] | < 100 nM | 
41 | CC(=O)Nc1nc(C)c(-c2ccc(S(=O)(=O)NCc3cccc(C(F)(F)F)c3)o2)s1 [Compound 42] | < 100 nM | 
42 | CC(=O)Nc1nc(C)c(-c2ccc(S(=O)(=O)NCc3cccc(OC(F)(F)F)c3)o2)s1 [Compound 43] | 100 to 1000 nM | 
43 | CC(=O)Nc1nc(C)c(-c2ccc(S(=O)(=O)NCc3cc(Cl)cc(Cl)c3)o2)s1 [Compound 44] | 100 to 1000 nM | 
44 | COc1cc(CNS(=O)(=O)c2ccc(-c3sc(NC(C)=O)nc3C)o2)cc(OC)c1 [Compound 45] | 100 to 1000 nM | 
45 | CC(=O)Nc1nc(C)c(-c2ccc(S(=O)(=O)NCc3cc(F)cc(F)c3)o2)s1 [Compound 46] | < 100 nM | 
46 | CC(=O)Nc1nc(C)c(-c2ccc(S(=O)(=O)NCc3cccc(NS(C)(=O)=O)c3)o2)s1 [Compound 47] | < 100 nM | 
47 | CC(=O)Nc1nc(C)c(-c2ccc(S(=O)(=O)N(C)Cc3ccccc3)o2)s1 [Compound 48] | < 100 nM | 
48 | CC(=O)Nc1nc(C)c(-c2ccc(S(=O)(=O)N[C@@H](C)c3ccccc3)o2)s1 [Compound 49] | < 100 nM | 

Row | SMILES | Ki [1] | Ki
49 | CC[C@H](NS(=O)(=O)c1ccc(-c2sc(NC(C)=O)nc2C)o1)c1ccccc1 [Compound 50] | < 100 nM | 
50 | CC(=O)Nc1nc(C)c(-c2ccc(S(=O)(=O)N[C@H](C)c3ccccc3)o2)s1 [Compound 51] | < 100 nM | 
51 | CC(=O)Nc1nc(C)c(-c2ccc(S(=O)(=O)N[C@H](CCO)c3ccccc3)o2)s1 [Compound 52] | < 100 nM | 
52 | CC(=O)Nc1nc(C)c(-c2ccc(S(=O)(=O)N[C@@H](CO)c3ccccc3)o2)s1 [Compound 53] | < 100 nM | 
53 | CC(=O)Nc1nc(C)c(-c2ccc(S(=O)(=O)NC(C)(C)c3ccccc3)o2)s1 [Compound 54] | < 100 nM | 
54 | CC(=O)Nc1nc(C)c(-c2ccc(S(=O)(=O)NCc3ccccc3Cl)o2)s1 [Compound 55] | < 100 nM | 
55 | CC(=O)Nc1nc(C)c(-c2ccc(S(=O)(=O)N[C@H]3CCc4ccccc43)o2)s1 [Compound 56] | < 100 nM | 
56 | CC(=O)Nc1nc(C)c(-c2ccc(S(=O)(=O)N[C@@H]3CCc4ccccc43)o2)s1 [Compound 57] | < 100 nM | 
57 | COc1ccccc1CNS(=O)(=O)c1ccc(-c2sc(NC(C)=O)nc2C)o1 [Compound 58] | < 100 nM | 
58 | CC(=O)Nc1nc(C)c(-c2ccc(S(=O)(=O)NCCF)o2)s1 [Compound 59] | < 100 nM | 
59 | CC(=O)Nc1nc(C)c(-c2ccc(S(=O)(=O)NCC(F)F)o2)s1 [Compound 60] | < 100 nM | 
60 | CC(=O)Nc1nc(C)c(-c2ccc(S(=O)(=O)N(C)CC(F)(F)F)o2)s1 [Compound 61] | < 100 nM | 
61 | COC(=O)C(NS(=O)(=O)c1ccc(-c2sc(NC(C)=O)nc2C)o1)c1ccccc1 (centres unmarked) [Compound 62] | < 100 nM | 
62 | CC(=O)Nc1nc(C)c(-c2ccc(S(=O)(=O)NC(C#N)c3ccccc3)o2)s1 (centres unmarked) [Compound 63] | < 100 nM | 
63 | CC(=O)Nc1nc(C)c(-c2ccc(S(=O)(=O)NCC#N)o2)s1 [Compound 64] | < 100 nM | 
64 | CC(=O)Nc1nc(C)c(-c2ccc(S(=O)(=O)Nc3ccccc3C)o2)s1 [Compound 65] | < 100 nM | 
65 | CC[C@@H](NS(=O)(=O)c1ccc(-c2sc(NC(C)=O)nc2C)o1)c1ccccc1 [Compound 66] | < 100 nM | 
66 | CC(=O)Nc1nc(C)c(-c2ccc(S(=O)(=O)NCc3ccccc3C)o2)s1 [Compound 67] | < 100 nM | 
67 | CC(=O)Nc1nc(C)c(-c2ccc(S(=O)(=O)NCC(F)(F)F)o2)s1 [Compound 68] | < 100 nM | 
68 | CC(=O)Nc1nc(C)c(-c2ccc(S(=O)(=O)Nc3ccccc3F)o2)s1 [Compound 69] | < 100 nM | 
69 | CC(=O)Nc1nc(C)c(-c2ccc(S(=O)(=O)Nc3c(F)cccc3F)o2)s1 [Compound 70] | 100 to 1000 nM | 
70 | COC(=O)c1nc(NC(C)=O)sc1-c1ccc(S(=O)(=O)N(C)Cc2ccccc2)o1 [Compound 71] | 1000 to 5000 nM | 
71 | COC(=O)c1nc(NC(C)=O)sc1-c1ccc(S(=O)(=O)NCc2ccccc2)o1 [Compound 72] | 100 to 1000 nM | 
